From ChEMBL document CHEMBL2074334, “Altered hepatobiliary disposition of acetaminophen glucuronide in isolated perfused livers from multidrug resistance-associated protein 2-deficient TR(-) rats” (J Pharmacol Exp Ther, 2000)

Target: ATP-binding cassette sub-family C member 2 (Rattus norvegicus, UniProt Q63120)
Assay: TP_TRANSPORTER: decrease in biliary excretion in isolated perfused liver from TR- rat
Type: functional

Chain of ATP-binding cassette sub-family C member 2 (Q63120 whole entry, the tested form may be a part): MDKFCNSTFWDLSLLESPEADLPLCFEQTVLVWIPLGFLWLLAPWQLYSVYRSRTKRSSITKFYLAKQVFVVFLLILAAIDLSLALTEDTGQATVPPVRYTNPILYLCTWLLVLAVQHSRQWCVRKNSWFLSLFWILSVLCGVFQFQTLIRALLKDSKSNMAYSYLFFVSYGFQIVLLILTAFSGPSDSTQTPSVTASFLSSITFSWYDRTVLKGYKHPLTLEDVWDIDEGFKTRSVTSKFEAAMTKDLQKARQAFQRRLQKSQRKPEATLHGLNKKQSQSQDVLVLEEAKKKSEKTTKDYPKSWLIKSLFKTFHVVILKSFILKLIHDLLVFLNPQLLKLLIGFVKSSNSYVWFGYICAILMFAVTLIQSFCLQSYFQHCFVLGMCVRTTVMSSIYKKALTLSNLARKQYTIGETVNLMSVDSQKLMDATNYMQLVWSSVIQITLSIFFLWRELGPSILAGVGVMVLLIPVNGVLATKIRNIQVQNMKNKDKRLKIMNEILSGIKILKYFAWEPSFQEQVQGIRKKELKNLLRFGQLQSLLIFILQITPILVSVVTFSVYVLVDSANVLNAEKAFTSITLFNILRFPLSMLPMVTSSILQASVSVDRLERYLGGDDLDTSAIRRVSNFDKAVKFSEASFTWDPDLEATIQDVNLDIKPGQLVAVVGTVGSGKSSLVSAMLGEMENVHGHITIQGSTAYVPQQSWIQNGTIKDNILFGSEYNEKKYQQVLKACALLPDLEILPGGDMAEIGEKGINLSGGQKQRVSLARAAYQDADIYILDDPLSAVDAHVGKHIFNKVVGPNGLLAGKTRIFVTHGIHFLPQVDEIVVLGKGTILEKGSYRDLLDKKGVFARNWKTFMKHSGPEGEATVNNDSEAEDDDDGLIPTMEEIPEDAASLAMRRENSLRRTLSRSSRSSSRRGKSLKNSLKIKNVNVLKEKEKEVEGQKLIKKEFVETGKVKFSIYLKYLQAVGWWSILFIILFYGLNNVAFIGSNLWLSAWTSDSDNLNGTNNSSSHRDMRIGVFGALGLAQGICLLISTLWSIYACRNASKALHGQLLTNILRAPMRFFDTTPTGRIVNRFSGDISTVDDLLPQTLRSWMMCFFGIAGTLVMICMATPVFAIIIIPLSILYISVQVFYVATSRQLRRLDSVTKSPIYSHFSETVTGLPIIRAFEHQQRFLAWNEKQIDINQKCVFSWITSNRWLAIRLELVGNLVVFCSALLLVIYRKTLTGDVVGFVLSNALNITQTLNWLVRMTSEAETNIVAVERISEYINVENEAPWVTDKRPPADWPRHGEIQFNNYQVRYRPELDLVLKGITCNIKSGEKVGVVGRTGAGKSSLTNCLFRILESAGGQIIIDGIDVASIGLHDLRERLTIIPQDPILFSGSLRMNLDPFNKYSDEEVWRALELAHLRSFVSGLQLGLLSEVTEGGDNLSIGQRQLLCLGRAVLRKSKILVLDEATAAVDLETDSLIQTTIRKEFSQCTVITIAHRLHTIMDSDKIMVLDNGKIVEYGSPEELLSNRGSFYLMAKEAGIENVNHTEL

| Activity | SMILES |
| --- | --- |
| substrate [+] | CC(=O)Nc1ccccc1.O=S(=O)(O)O |
| substrate [+] | CC(=O)Nc1ccc(O[C@@H]2O[C@H](C(=O)O)[C@@H](O)[C@H](O)[C@H]2O)cc1 [ACETAMINOPHEN GLUCURONIDE] |
